For series [1] the following is noted: cited from earlier work.
Series [2] in a line: Gas hydrate inhibitor and anti-agglomerant test. To be noted: 0.5% and 1.0% (w/w NaCl brine solution), 123 bar, 2.8° C. As for the experimental part: Bis-N-ethyl pyrrolidone ether was assessed as a gas hydrate inhibitor and as an anti-agglomerant. A three-part fluid blend was prepared having equal mass amounts of Troika crude oil (black oil), synthetic condensate, and a sodium chloride brine solution into which the ether was dissolved. Ether addition levels were studied two times at 0.5% (w/w NaCl brine solution), and one time at 1.0% (w/w NaCl brine solution). The abovementioned fluid blend blanketed with Green Canyon gas (Table 6) at a pressure of 123 bar and maintained at 2.8° C. for the tests.

Series [3] in a line: Freezing points of bis-N-ethyl pyrrolidone ether/water blends by differential scanning calorimetry. In kind it is physicochemical. Here is the method:
The freezing points of bis-N-ethyl pyrrolidone ether/water blends were measured using differential scanning calorimetry. All measurements were conducted under nitrogen purge from 25° C. to −80° C. at a cooling rate of 5° C./min using a Q2000 calorimeter by TA Instruments.
Freezing depressions were measured for bis-N-ethyl pyrrolidone ether/water blends (Table 3).
(In general: In DSC, transitions show as peaks or steps in heat flow.)

For series [4] the following is noted: equal volume ratio.
From the text: The blends were visually observed to determine miscibility of the ether with the various solvents.
Series [5] is described as follows: Freezing point depression of glycerol (or other polyol)-water blends with added ether. The format is physicochemical. Here is the method: Different binary blends of glycerol and water are prepared, and then bis-N-ethyl pyrrolidone ether is added in 1% increments from 0% to 50% of the ether. The freezing point depression of these compositions is measured using a suitable differential thermometer (e.g., a thermocouple).
As a specific subclass to Example 5, a eutectic blend of glycerol-water is prepared, having about 65% glycerol (by weight) and a freezing point depression of about −46° C. Bis-N-ethyl pyrrolidone ether is added in 1% increments from 0% to 50% added ether. The freezing point depression of these compositions is measured using a suitable differential thermometer (e.g., a thermocouple).
[…], replacing glycerol with ethylene glycol, propylene glycol, or pentaerythritol.

The nature of series [6]: Aqueous behavior of ether/water blends, pH 1 to 13, chilled. In kind it is physicochemical. Conditions: equal mass ratio with water, pH adjusted from 1 to 13, chilled to −15° C. As for the experimental part:
The blends were pH adjusted from 1 to 13 and then chilled to −15° C.

Entries after “also recorded” stand apart in the source; their conditions may differ. Read-outs that look alike come from different tables or passages of the source.

Regarding `OCCO` [ethylene glycol], the freezing point was −3 °C in series [1] (11% in water (by mass)); −8 °C in series [1] (22% in water (by mass)); −16 °C in series [1] (32% in water (by mass)); −25 °C in series [1] (43% in water (by mass)); −37 °C in series [1] (53% in water (by mass)); −55 °C in series [1] (63% in water (by mass)). In series [1] (ethylene glycol and water in equal mass ratio), the freezing point was −32 °C.

Regarding `O=C1CCCN1CCOCCN1CCCC1=O` [bis-N-ethyl pyrrolidone ether], the “formation of gas hydrates and agglomerants” value in series [2] is recorded as “considerably limited gas hydrate formation; also recorded: very small”. The freezing point in series [3] (1% in water (by mass)) is −9.3 °C; in series [3] (5% in water (by mass)), −7.9 °C; in series [3] (10% in water (by mass)) it was −13.5 °C; in series [3] (20% in water (by mass)), −13.3 °C; in series [3] (30% in water (by mass)), −18.2 °C; in series [3] (40% in water (by mass)), −28.6 °C. Further, the freezing point in series [3] (50% in water (by mass)) was −43.2 °C; the freezing point in series [3] (60% in water (by mass)) was under −80 °C; the freezing point in series [3] (66% in water (by mass)) was under −80 °C; the freezing point in series [3] (75% in water (by mass)) was under −80 °C; the freezing point in series [3] (100% bis-N-ethyl pyrrolidone ether) was under −80 °C; the freezing point (neat) was under −80 °C. The miscibility observation entry is “miscible” in series [4] (2-propanol); “miscible” in series [4] (acetone); “immiscible” in series [4] (cyclohexane); “insoluble” in series [4] (cyclohexane, listed as bis-N-ethyl pyrrolidone); “miscible” in series [4] (ethyl acetate); “immiscible” in series [4] (hexane). In addition, the miscibility observation entry in series [4] (hexane, listed as bis-N-ethyl pyrrolidone) is listed as “insoluble”; in series [4] (methanol), “miscible”; in series [4] (methyl ethyl ketone), “miscible”; in series [4] (toluene), “miscible”; in series [4] (water) it was “miscible”. Moreover, in series [5] (ether added 0% to 50% to eutectic glycerol-water blend (about 65% glycerol)), the freezing point depression result is “lower than −46 °C”. Moreover, the “freezing point depression compared to glycerol-water binary blends” value in series [5] (ether added 0% to 50% to glycerol-water blends) was “further depress the freezing point depression”. Besides, the “freezing point depression compared to solutions without the ether” value in series [5] (glycerol replaced with ethylene glycol, propylene glycol, or pentaerythritol) is given as “lowers the freezing point depression”. Besides, the “phase behavior of blend with water” value in series [6] is given as “single phase”. Where the note is “50% aqueous solution”, the “pH in a 50% aqueous solution” value is listed as 9.5. This compound also showed a viscosity (Cannon Fenske viscometer, #300 tube) of 96.4 cP^†. For the same compound, the “color (APHA)” value (neat) is recorded as over 500. The refractive index (usually a measure of how strongly the sample bends light) is on record as “around 1.51” (neat) and 1.5063 (neat, listed as bis-N-ethyl pyrrolidone). Further, under “neat”, the specific gravity worked out at 1.148. The compound also came in with a thermal decomposition temperature (neat) of 275 °C. In addition, the physical state result (neat, ambient conditions) is on record as “liquid (ambient conditions)”. Further, the “surface tension (static)” value by setting is: (plate) 50.2; (ring) 51.1.

The record behind these values is US9351484B2, “N-alkyl lactam ethers, and compositions and uses thereof” (priority 2010, dated 2016).
